Tests used:
Assay in all cases: Test D controlled growth environment herbicide test, pre- and postemergence
Format in all cases: in vivo
[1] = tested on: field violet (Viola arvensis)
How it was run: (§1)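 Rating is visual, 0–100 scale (100 = complete control), made against untreated plants 14–21 d after treatment in controlled growth conditions. Postemergence sprays went onto 1- to 4-leaf plants in peat medium; preemergence sprays onto silt loam after sowing; formulation included a surfactant.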

[2] = tested on: barley, winter (winter barley, Hordeum vulgare)
How it was run: as §1

[3] = tested on: chickweed (common chickweed, Stellaria media); settings: for Chickweed plant response rating / Plant response rating (scale of 0 to 100), Chickweed: 31 g ai/ha
How it was run: as §1

[4] = tested on: pigweed (Amaranthus retroflexus); settings: for Pigweed plant response rating / Plant response rating (scale of 0 to 100), Pigweed: 31 g ai/ha
How it was run: as §1

[5] = tested on: galium (catchweed bedstraw, Galium aparine); settings: for Galium plant response rating / Plant response rating (scale of 0 to 100), Galium: 31 g ai/ha
How it was run: as §1

[6] = tested on: bluegrass (annual bluegrass, Poa annua)
How it was run: as §1

[7] = tested on: blackgrass (Alopecurus myosuroides)
How it was run: as §1

[8] = tested on: lambsquarters (Chenopodium album); settings: for Lambsquarters plant response rating / Plant response rating (scale of 0 to 100), Lambsquarters: 31 g ai/ha
How it was run: as §1

[9] = tested on: wheat, winter (winter wheat, Triticum aestivum); settings: for Wheat, Winter plant response rating / Plant response rating (scale of 0 to 100), Wheat, Winter: 31 g ai/ha
How it was run: as §1

[10] = tested on: foxtail, green (green foxtail, Setaria viridis); settings: for Foxtail, Green plant response rating / Plant response rating (scale of 0 to 100), Foxtail, Green: 31 g ai/ha
How it was run: as §1

[11] = tested on: chamomile (scentless chamomile, Matricaria inodora)
How it was run: as §1

[12] = tested on: bromegrass, downy (downy bromegrass, Bromus tectorum); settings: for Bromegrass, Downy plant response rating / Plant response rating (scale of 0 to 100), Bromegrass, Downy: 31 g ai/ha
How it was run: as §1

kochia (Kochia scoparia) = settings: for Kochia plant response rating / Plant response rating (scale of 0 to 100), Kochia: 31 g ai/ha
How it was run: as §1

[13] = Preemergence, 62 g ai/ha, scale 0 to 100 (0 no effect, 100 complete control)
[14] = Preemergence, 125 g ai/ha, scale 0 to 100 (0 no effect, 100 complete control)
[15] = Preemergence, 250 g ai/ha, scale 0 to 100, 0 no effect, 100 complete control
[16] = Postemergence, 31 g ai/ha, scale 0 to 100 (0 no effect, 100 complete control)
[17] = Postemergence, 125 g ai/ha, visual rating on scale 0 (no effect) to 100 (complete control), 14 to 21 d
[18] = Postemergence, 250 g ai/ha, scale 0 to 100 (0 no effect, 100 complete control)
[19] = postemergence, 62 g ai/ha, scale 0 to 100, 0 no effect, 100 complete control
[20] = Postemergence, scale 0 to 100 (0 no effect, 100 complete control)

CCc1sc2ccc(C)cc2c1-c1c(O)c(C)nn(C)c1=O [Compound 47]
Plant response rating (scale of 0 to 100), Field Violet ([1]; Preemergence, 31 g ai/ha): 95
Plant response rating, Field Violet [1, 13]: 100
Plant response rating, Field Violet [1, 14]: 100
Plant response rating, Field Violet [1, 15]: 100
Barley, Winter plant response rating [2, 16]: 10
Plant response rating, Barley, Winter [2, 17]: 15
Plant response rating, Barley, Winter [2, 18]: 15
Plant response rating (scale of 0 to 100), Barley, Winter ([2]; Preemergence, 31 g ai/ha): 0
Plant response rating, Barley, Winter [2, 13]: 0
Plant response rating, Barley, Winter [2, 14]: 5
Barley, Winter plant response rating [2, 15]: 10
Plant response rating, Barley, Winter [2, 19]: 10
Chickweed plant response rating [3, 20]: 90
Plant response rating, Chickweed [3, 17]: 95
Plant response rating, Chickweed [3, 18]: 100
Plant response rating (scale of 0 to 100), Chickweed ([3]; Preemergence): 90
Plant response rating, Chickweed [3, 13]: 95
Plant response rating, Chickweed [3, 14]: 100
Plant response rating, Chickweed [3, 15]: 90
Plant response rating, Chickweed [3, 19]: 95
Pigweed plant response rating [4, 20]: 75
Plant response rating, Pigweed [4, 17]: 100
Plant response rating, Pigweed [4, 18]: 100
Plant response rating (scale of 0 to 100), Pigweed ([4]; Preemergence): 70
Plant response rating, Pigweed [4, 13]: 100
Plant response rating, Pigweed [4, 14]: 100
Plant response rating, Pigweed [4, 15]: 100
Plant response rating, Pigweed [4, 19]: 75
Galium plant response rating [5, 20]: 65
Plant response rating, Galium [5, 17]: 75
Plant response rating, Galium [5, 18]: 80
Plant response rating (scale of 0 to 100), Galium ([5]; Preemergence): 85
Plant response rating, Galium [5, 13]: 95
Plant response rating, Galium [5, 14]: 100
Plant response rating, Galium [5, 15]: 100
Plant response rating, Galium [5, 19]: 75
Bluegrass plant response rating [6, 16]: 5
Plant response rating, Bluegrass [6, 17]: 10
Plant response rating, Bluegrass [6, 18]: 15
Plant response rating (scale of 0 to 100), Bluegrass ([6]; Preemergence, 31 g ai/ha): 0
Plant response rating, Bluegrass [6, 13]: 20
Plant response rating, Bluegrass [6, 14]: 20
Bluegrass plant response rating [6, 15]: 20
Plant response rating, Bluegrass [6, 19]: 10
Blackgrass plant response rating [7, 16]: 25
Plant response rating, Blackgrass [7, 17]: 35
Plant response rating, Blackgrass [7, 18]: 65
Plant response rating (scale of 0 to 100), Blackgrass ([7]; Preemergence, 31 g ai/ha): 5
Plant response rating, Blackgrass [7, 13]: 20
Plant response rating, Blackgrass [7, 14]: 30
Blackgrass plant response rating [7, 15]: 50
Plant response rating, Blackgrass [7, 19]: 25
Lambsquarters plant response rating [8, 20]: 45
Plant response rating, Lambsquarters [8, 17]: 70
Plant response rating, Lambsquarters [8, 18]: 70
Plant response rating (scale of 0 to 100), Lambsquarters ([8]; Preemergence): 100
Plant response rating, Lambsquarters [8, 13]: 100
Plant response rating, Lambsquarters [8, 14]: 100
Plant response rating, Lambsquarters [8, 15]: 100
Plant response rating, Lambsquarters [8, 19]: 50
Wheat, Winter plant response rating [9, 20]: 5
Plant response rating, Wheat, Winter [9, 17]: 10
Plant response rating, Wheat, Winter [9, 18]: 5
Plant response rating (scale of 0 to 100), Wheat, Winter ([9]; Preemergence): 5
Plant response rating, Wheat, Winter [9, 13]: 5
Plant response rating, Wheat, Winter [9, 14]: 10
Plant response rating, Wheat, Winter [9, 15]: 10
Plant response rating, Wheat, Winter [9, 19]: 5
Foxtail, Green plant response rating [10, 20]: 50
Plant response rating, Foxtail, Green [10, 17]: 70
Plant response rating, Foxtail, Green [10, 18]: 80
Plant response rating (scale of 0 to 100), Foxtail, Green ([10]; Preemergence): 0
Plant response rating, Foxtail, Green [10, 13]: 25
Plant response rating, Foxtail, Green [10, 14]: 60
Plant response rating, Foxtail, Green [10, 15]: 100
Plant response rating, Foxtail, Green [10, 19]: 60
Plant response rating (scale of 0 to 100), Chamomile ([11]; Preemergence, 31 g ai/ha): 80
Plant response rating, Chamomile [11, 13]: 80
Plant response rating, Chamomile [11, 14]: 85
Plant response rating, Chamomile [11, 15]: 85
Bromegrass, Downy plant response rating [12, 20]: 5
Plant response rating, Bromegrass, Downy [12, 17]: 5
Plant response rating, Bromegrass, Downy [12, 18]: 5
Plant response rating (scale of 0 to 100), Bromegrass, Downy ([12]; Preemergence): 5
Plant response rating, Bromegrass, Downy [12, 13]: 10
Plant response rating, Bromegrass, Downy [12, 14]: 15
Plant response rating, Bromegrass, Downy [12, 15]: 15
Plant response rating, Bromegrass, Downy [12, 19]: 0
Kochia plant response rating (kochia (Kochia scoparia); [20]): 45
Plant response rating, Kochia (kochia (Kochia scoparia); [17]): 95
Plant response rating, Kochia (kochia (Kochia scoparia); [18]): 100
Plant response rating (scale of 0 to 100), Kochia (kochia (Kochia scoparia); Preemergence): 10
Plant response rating, Kochia (kochia (Kochia scoparia); [13]): 10
Plant response rating, Kochia (kochia (Kochia scoparia); [14]): 35
Plant response rating, Kochia (kochia (Kochia scoparia); [15]): 40
Plant response rating, Kochia (kochia (Kochia scoparia); [19]): 70

CCc1sc2c(C)cc(C)cc2c1-c1c(O)c(C)nn(C)c1=O [Compound 57]
Field Violet plant response rating [1, 16]: 80
Plant response rating, Field Violet [1, 17]: 75
Plant response rating, Field Violet [1, 18]: 85
Plant response rating (scale of 0 to 100), Field Violet ([1]; Preemergence, 31 g ai/ha): 95
Plant response rating, Field Violet [1, 13]: 100
Plant response rating, Field Violet [1, 14]: 100
Plant response rating, Field Violet [1, 15]: 100
Plant response rating, Field Violet [1, 19]: 70
Barley, Winter plant response rating [2, 16]: 20
Plant response rating, Barley, Winter [2, 17]: 25
Plant response rating, Barley, Winter [2, 18]: 25
Plant response rating (scale of 0 to 100), Barley, Winter ([2]; Preemergence, 31 g ai/ha): 0
Plant response rating, Barley, Winter [2, 13]: 0
Plant response rating, Barley, Winter [2, 14]: 5
Plant response rating, Barley, Winter [2, 15]: 5
Plant response rating, Barley, Winter [2, 19]: 30
Chickweed plant response rating [3, 20]: 100
Plant response rating, Chickweed [3, 17]: 100
Plant response rating, Chickweed [3, 18]: 100
Plant response rating (scale of 0 to 100), Chickweed ([3]; Preemergence): 100
Plant response rating, Chickweed [3, 13]: 100
Plant response rating, Chickweed [3, 14]: 100
Plant response rating, Chickweed [3, 15]: 100
Plant response rating, Chickweed [3, 19]: 100
Pigweed plant response rating [4, 20]: 85
Plant response rating, Pigweed [4, 17]: 100
Plant response rating, Pigweed [4, 18]: 100
Plant response rating (scale of 0 to 100), Pigweed ([4]; Preemergence): 70
Plant response rating, Pigweed [4, 13]: 75
Plant response rating, Pigweed [4, 14]: 98
Plant response rating, Pigweed [4, 15]: 100
Plant response rating, Pigweed [4, 19]: 85
Galium plant response rating [5, 20]: 90
Plant response rating, Galium [5, 17]: 90
Plant response rating, Galium [5, 18]: 98
Plant response rating (scale of 0 to 100), Galium ([5]; Preemergence): 85
Plant response rating, Galium [5, 13]: 100
Plant response rating, Galium [5, 14]: 100
Plant response rating, Galium [5, 15]: 100
Plant response rating, Galium [5, 19]: 90
Bluegrass plant response rating [6, 16]: 5
Plant response rating, Bluegrass [6, 17]: 15
Plant response rating, Bluegrass [6, 18]: 15
Plant response rating (scale of 0 to 100), Bluegrass ([6]; Preemergence, 31 g ai/ha): 0
Plant response rating, Bluegrass [6, 13]: 20
Plant response rating, Bluegrass [6, 14]: 25
Plant response rating, Bluegrass [6, 15]: 65
Plant response rating, Bluegrass [6, 19]: 15
Blackgrass plant response rating [7, 16]: 15
Plant response rating, Blackgrass [7, 17]: 55
Plant response rating, Blackgrass [7, 18]: 75
Plant response rating (scale of 0 to 100), Blackgrass ([7]; Preemergence, 31 g ai/ha): 25
Plant response rating, Blackgrass [7, 13]: 35
Plant response rating, Blackgrass [7, 14]: 70
Plant response rating, Blackgrass [7, 15]: 80
Plant response rating, Blackgrass [7, 19]: 45
Lambsquarters plant response rating [8, 20]: 75
Plant response rating, Lambsquarters [8, 17]: 75
Plant response rating, Lambsquarters [8, 18]: 85
Plant response rating (scale of 0 to 100), Lambsquarters ([8]; Preemergence): 100
Plant response rating, Lambsquarters [8, 13]: 100
Plant response rating, Lambsquarters [8, 14]: 100
Plant response rating, Lambsquarters [8, 15]: 100
Plant response rating, Lambsquarters [8, 19]: 75
Wheat, Winter plant response rating [9, 20]: 5
Plant response rating, Wheat, Winter [9, 17]: 10
Plant response rating, Wheat, Winter [9, 18]: 15
Plant response rating (scale of 0 to 100), Wheat, Winter ([9]; Preemergence): 5
Plant response rating, Wheat, Winter [9, 13]: 5
Plant response rating, Wheat, Winter [9, 14]: 5
Plant response rating, Wheat, Winter [9, 15]: 10
Plant response rating, Wheat, Winter [9, 19]: 10
Foxtail, Green plant response rating [10, 20]: 75
Plant response rating, Foxtail, Green [10, 17]: 75
Plant response rating, Foxtail, Green [10, 18]: 90
Plant response rating (scale of 0 to 100), Foxtail, Green ([10]; Preemergence): 10
Plant response rating, Foxtail, Green [10, 13]: 70
Plant response rating, Foxtail, Green [10, 14]: 100
Plant response rating, Foxtail, Green [10, 15]: 100
Plant response rating, Foxtail, Green [10, 19]: 75
Chamomile plant response rating [11, 16]: 100
Plant response rating, Chamomile [11, 17]: 100
Plant response rating, Chamomile [11, 18]: 100
Plant response rating, Chamomile [11, 19]: 100
Bromegrass, Downy plant response rating [12, 20]: 15
Plant response rating, Bromegrass, Downy [12, 17]: 25
Plant response rating, Bromegrass, Downy [12, 18]: 35
Plant response rating (scale of 0 to 100), Bromegrass, Downy ([12]; Preemergence): 0
Plant response rating, Bromegrass, Downy [12, 13]: 5
Plant response rating, Bromegrass, Downy [12, 14]: 25
Plant response rating, Bromegrass, Downy [12, 15]: 30
Plant response rating, Bromegrass, Downy [12, 19]: 20
Kochia plant response rating (kochia (Kochia scoparia); [20]): 40
Plant response rating, Kochia (kochia (Kochia scoparia); [17]): 65
Plant response rating, Kochia (kochia (Kochia scoparia); [18]): 75
Plant response rating (scale of 0 to 100), Kochia (kochia (Kochia scoparia); Preemergence): 10
Plant response rating, Kochia (kochia (Kochia scoparia); [13]): 10
Plant response rating, Kochia (kochia (Kochia scoparia); [14]): 35
Plant response rating, Kochia (kochia (Kochia scoparia); [15]): 100
Plant response rating, Kochia (kochia (Kochia scoparia); [19]): 55
